Values of other authors, collected in PMC6724535 (Journal of molecular biology, 2019).

Experiments:
[1] = system: E. coli expressing TetK, TetA, TetB, and TetM
[2] = system: E. coli expressing TetX; conditions: E. coli expressing TetX vs wild-type E. coli
[3] = system: E. coli expressing AACs, ANTs, APHs and 16S rRNA ribosomal methyltransferases
[4] = system: D. discoideum

CN(C)[C@@H]1C(O)=C(C(N)=O)C(=O)[C@@]2(O)C(O)=C3C(=O)c4c(O)c(NC(=O)CN5CCCC5)cc(F)c4C[C@H]3C[C@@H]12 [eravacycline]
antibacterial activity [1]: maintained nearly full antibacterial activity
increase in minimal inhibitory concentration (MIC) relative to wild-type E. coli [2]: 64 fold

CN[C@@H]1[C@@H](O)[C@@H](O[C@@H]2[C@@H](O)[C@H](O[C@H]3OC(CNCCO)=CC[C@H]3N)[C@@H](N)C[C@H]2NC(=O)[C@@H](O)CCN)OC[C@]1(C)O [plazomicin]
activity against E. coli expressing aminoglycoside inactivating enzymes ([3]; majority of canonical AACs, ANTs, and APHs): maintain activity
antibacterial activity with ribosomal methyltransferases ([3]; some plasmid-encoded 16S rRNA ribosomal methyltransferases): completely abolish

jessenipeptin
amoebicidal activity IC50 [4]: 4 mg/L
